# Test results published in US20090247520A1, “INHIBITORS OF ANTIGEN RECEPTOR-INDUCED NF-kappa B ACTIVATION” (The Burnham Institute for Medical Research, priority 2008, published 2009).
# Tests used:
# purified luciferase = biological target: T1, purified luciferase (Photinus pyralis, UniProt P08659); assay: Luciferase inhibition counter screen, in vitro enzymatic assay; format: biochemical; details: not shown
# T1 construct: purchased Perkin Elmer
# Procedure: Counter Screening and Secondary Assays. To counter-screen for inhibitors of the TNF pathway, HEK293-NFκB-Luc cells were seeded at 10^5 cells per well in 90 μL medium in white 96-well plates (Greiner Bio-One) and cultured overnight, before adding compounds (5 μL in medium) to cells. After 2 h incubation, 5 μL TNF (200 ng/mL) (R&D Systems) was added (final concentration 10 ng/mL) and cells were incubated for 16 h. Luciferase activity was measured using Britelite kit (Perkin Elmer). To counter-screen for inhibitors of NF-κB induced by TLR4, CD40, NOD1, NOD2, cIAP2/MALT, or XIAP/TAB, the 293-NF-κB-luc cells cultured in 96 well plates as above were pretreated with compounds for 2 h and then transfected using Lipofectamine 2000 with various plasmids including pcDNA3 (“empty vector” control) or plasmids encoding CD4-TLR4, CD40, NOD1, NOD2, cIAP2/MALT, XIAP/TAB, using 0.2 μL of transfection reagent containing 100 ng DNA per well. Cells were cultured in medium containing CID-2858522 or other compounds and luciferase activity was measured 48 h later. […] Reactions were then initiated by addition of 50 μL 160 nM ATP (Sigma) in PBS and luciferase activity was measured 2 h later using a luminometer (LJL Biosystems, Sunnyvale, Calif.).
# TLK1 = biological target: T2, TLK1 (Homo sapiens, UniProt Q9UKI8); assay: KINOMEscan competition binding assay, TLK1
# T2 construct: proprietary tag (Ambit); purchased Ambit, Inc
# Excerpt: (§1) CID-2858522 is not a potent protein kinase inhibitor. Protein kinases play critical roles in NF-κB activation. PKCs are proximal kinases in the NF-κB pathways activated by PMA/Ionomycin and by T- and B-cell antigen receptors, while the IKKs are distal kinases operating in the terminal segments of these and other NF-κB activation pathways. We therefore tested whether CID-2858522 inhibits members of these kinase families by in vitro kinase assays. For these experiments, we tested PKC-beta and PKC-theta (the PKC family members implicated in TCR/BCR signaling), and IKK-beta (a component of the IKK complex) (FIG. 6). […] In addition to assessing these three kinases by conventional in vitro kinase assays, a kinome screen was performed using a high throughput screening method, KINOMEscan™, which is an active-site dependent competition binding assay in which human kinases of interest are fused to a proprietary tag (Ambit). The amount of kinase bound to an immobilized, active-site directed ligand is measured in the presence and absence of the test compound. […] Thus, CID-2858522 inhibits none of the protein kinases previously implicated in regulating NF-κB.
# (§2) In Vitro Kinase Assays. PKC-beta, PKC-theta and IKK-beta in vitro kinase assays were performed using the HTScan Kinase Assay Kit (Cell Signaling, Danvers, Mass.) according to manufacturer's protocols. […]
# [1] = test system: p65-DNA binding activity induced by TNF; assay: NF-κB p65 DNA-binding activity induced by TNF; format: cell-based; details: data not shown
# Procedure: NF-κB DNA-binding activity assays. Nuclear extracts were prepared from 10 cm^2 plates of confluent cells using a kit (Active Motif, Carsbad, Calif.). The total protein content of nuclear fractions was quantified by the Bradford method, followed by storage at −80° C. NF-κB DNA-binding activity was measured in nuclear extracts (10 μg protein) using an immunoassay method (TransAM Kit [Active Motif]) employing 96 well plates coated with double-strand oligodeoxynucleotides containing NF-κB consensus binding site (5′-[…]-3′) and anti-p65 antibody, which was detected by secondary horseradish peroxidase (HRP)-conjugated antibody, using a calorimetric substrate with absorbance read at 450 nm within 5 minutes using a spectrophotometer, SpectraMax M5 (Molecular Devices, Sunnyvale, Calif.).
# JAK2 = biological target: T3, JAK2 (Homo sapiens, UniProt O60674); assay: KINOMEscan competition binding assay, JAK2
# T3 construct: proprietary tag (Ambit); purchased Ambit, Inc
# Excerpt: as §1, §2
# HEK293 cells = assay: Cell viability assay (ATPlite), HEK293 cells; format: cell-based
# Procedure: Cell viability assay. Cell viability was estimated based on cellular ATP levels, measured using ATPlite kit (Perkin Elmer). Cells at a density of 10^5/mL were seeded at 90 μL per well in 96-well white plates and cultured overnight. Compounds were added (5 μL in medium) to wells and cells were cultured for […], Finally, 50 μL ATPlite solution was added to each well and luminescence activity was read using a luminometer (LJL Biosystems, Sunnyvale, Calif.).
# T1 sequence (P08659 whole entry, species assumed): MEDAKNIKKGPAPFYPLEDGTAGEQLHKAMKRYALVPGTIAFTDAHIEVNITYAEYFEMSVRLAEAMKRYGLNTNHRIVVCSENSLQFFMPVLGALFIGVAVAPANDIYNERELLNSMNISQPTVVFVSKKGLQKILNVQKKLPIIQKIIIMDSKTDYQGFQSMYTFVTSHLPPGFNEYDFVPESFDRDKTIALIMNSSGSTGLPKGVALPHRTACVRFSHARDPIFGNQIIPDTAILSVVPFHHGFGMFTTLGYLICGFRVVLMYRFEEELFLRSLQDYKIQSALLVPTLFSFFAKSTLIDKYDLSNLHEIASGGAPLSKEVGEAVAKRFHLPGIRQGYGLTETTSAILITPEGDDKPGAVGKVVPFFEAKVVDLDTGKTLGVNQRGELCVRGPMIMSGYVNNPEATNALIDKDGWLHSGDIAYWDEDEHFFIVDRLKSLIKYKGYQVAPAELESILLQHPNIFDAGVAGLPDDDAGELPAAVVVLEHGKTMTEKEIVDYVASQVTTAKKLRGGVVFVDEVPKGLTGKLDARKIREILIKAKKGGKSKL
# T3 sequence (O60674 whole entry): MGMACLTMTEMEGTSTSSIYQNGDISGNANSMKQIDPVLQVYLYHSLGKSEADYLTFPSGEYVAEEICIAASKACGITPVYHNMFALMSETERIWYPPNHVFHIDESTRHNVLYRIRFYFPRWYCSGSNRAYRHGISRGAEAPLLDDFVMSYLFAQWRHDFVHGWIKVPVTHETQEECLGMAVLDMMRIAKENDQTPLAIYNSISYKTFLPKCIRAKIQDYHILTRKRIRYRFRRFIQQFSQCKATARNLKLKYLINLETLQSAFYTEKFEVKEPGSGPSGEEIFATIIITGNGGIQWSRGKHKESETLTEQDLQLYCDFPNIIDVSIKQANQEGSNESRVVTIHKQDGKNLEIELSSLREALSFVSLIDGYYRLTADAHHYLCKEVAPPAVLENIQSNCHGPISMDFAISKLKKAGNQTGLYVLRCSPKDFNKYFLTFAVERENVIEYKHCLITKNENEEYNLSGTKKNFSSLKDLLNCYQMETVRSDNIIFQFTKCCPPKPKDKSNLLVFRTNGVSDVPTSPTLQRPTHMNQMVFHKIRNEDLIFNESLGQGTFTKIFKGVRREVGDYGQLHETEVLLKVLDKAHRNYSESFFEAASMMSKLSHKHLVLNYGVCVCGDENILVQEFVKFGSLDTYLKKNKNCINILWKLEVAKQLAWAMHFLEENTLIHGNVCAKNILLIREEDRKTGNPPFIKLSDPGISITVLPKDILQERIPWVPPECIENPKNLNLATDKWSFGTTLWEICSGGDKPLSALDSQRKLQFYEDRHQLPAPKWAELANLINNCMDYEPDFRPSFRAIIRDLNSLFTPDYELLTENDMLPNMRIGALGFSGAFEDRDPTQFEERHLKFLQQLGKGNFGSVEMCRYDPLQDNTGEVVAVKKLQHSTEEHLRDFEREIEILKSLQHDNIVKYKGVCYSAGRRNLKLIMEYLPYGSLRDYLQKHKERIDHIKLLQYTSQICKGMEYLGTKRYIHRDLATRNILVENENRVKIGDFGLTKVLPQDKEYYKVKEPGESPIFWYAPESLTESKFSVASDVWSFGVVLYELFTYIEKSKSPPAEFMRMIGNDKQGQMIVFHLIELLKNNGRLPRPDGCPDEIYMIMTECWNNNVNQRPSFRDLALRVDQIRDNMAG
# T2 sequence (Q9UKI8 whole entry): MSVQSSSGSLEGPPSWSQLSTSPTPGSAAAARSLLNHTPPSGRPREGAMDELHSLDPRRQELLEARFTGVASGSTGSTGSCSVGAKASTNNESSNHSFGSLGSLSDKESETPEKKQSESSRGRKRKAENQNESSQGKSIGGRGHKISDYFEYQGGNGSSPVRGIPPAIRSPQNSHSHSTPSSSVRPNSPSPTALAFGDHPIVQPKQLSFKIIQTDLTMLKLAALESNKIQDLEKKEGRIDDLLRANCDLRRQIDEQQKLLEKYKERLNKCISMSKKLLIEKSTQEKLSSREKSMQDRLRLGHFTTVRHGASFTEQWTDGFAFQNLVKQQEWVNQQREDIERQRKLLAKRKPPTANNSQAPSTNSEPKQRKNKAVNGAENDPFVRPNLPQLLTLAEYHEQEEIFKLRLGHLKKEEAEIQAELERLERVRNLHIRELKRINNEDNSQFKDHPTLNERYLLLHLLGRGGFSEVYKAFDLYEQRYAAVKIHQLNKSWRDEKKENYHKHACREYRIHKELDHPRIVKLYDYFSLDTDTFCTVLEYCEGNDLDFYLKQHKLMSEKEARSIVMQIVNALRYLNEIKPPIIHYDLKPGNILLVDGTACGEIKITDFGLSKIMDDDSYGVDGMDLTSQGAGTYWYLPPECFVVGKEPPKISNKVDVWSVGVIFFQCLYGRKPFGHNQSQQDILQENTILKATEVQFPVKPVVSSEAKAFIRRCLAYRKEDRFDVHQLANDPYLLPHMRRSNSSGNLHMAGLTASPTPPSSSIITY
structure (smiles),measurement,setting,value
"Cc1cc2nc(NCCCO)n(CC(=O)c3cc(C(C)(C)C)c(O)c(C(C)(C)C)c3)c2cc1C [Compound 1, 2-(2-(3-Hydroxypropylamino)-5,6-dimethyl-1H-benzo[d]imidazol-1-yl)-1-(3,5-di-tert-butyl-4-hydroxyphenyl)ethanone]",inhibition of luciferase activity,purified luciferase,did not inhibit
same,inhibition at 10 µM,TLK1,70%
same,block of p65-DNA binding activity induced by TNF,[1],did not block
same,inhibition at 10 µM,JAK2,53%
same,concentrations not toxic to HEK293 cells,HEK293 cells,≤ 8 µM
